Test systems include SNB-75; SNB-19; UACC-257; SW-620; UACC-62; RPMI-8226; LOX IMVI; MOLT-4; OVCAR-4; SF-295; HL-60; SK-OV-3; NCI-H460; A549; OVCAR-3; SN12C; SF-268; NCI-H23; SF-539; KM12.
Holding throughout (assay): DTP human tumour cell line panel, 48 h

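Exposure lasted 48 hours, with cells grown in 96-well plates and compounds tested at five concentrations. GI50 marks 50% less growth.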 The source made the active and inactive calls. Cut-off read from the data, not from the text of the source: active = GI50 up to about 1.1 µM and inactive = higher.

The term GI50 denotes the concentration giving 50% growth inhibition. As for `COc1ccc(C(=C2C=CC=C2)c2ccc(OC)cc2)cc1`, the GI50 is 59 µM (inactive) in the assay with SNB-75; 28 µM (inactive) in the assay with SNB-19; 34.4 µM (inactive) in the assay with UACC-257; 32.6 µM (inactive) with SW-620; 33.7 µM (inactive) in the assay with UACC-62; 0.783 µM (active) in the assay on RPMI-8226. Also, the GI50 is 17.2 µM (inactive) in the assay with LOX IMVI; 14.5 µM (inactive) with MOLT-4; > 100 µM (inactive) in the assay with OVCAR-4; 16.9 µM (inactive) with SF-295; 36.4 µM (inactive) in the assay on HL-60; 18.2 µM (inactive) in the assay on SK-OV-3. Further, the GI50 with NCI-H460 was 32 µM (inactive); in the assay with A549, 44.9 µM (inactive); with OVCAR-3, 47.1 µM (inactive); in the assay with SN12C, 37.1 µM (inactive); with SF-268, 55.7 µM (inactive); in the assay on NCI-H23 it was 34.2 µM (inactive). In addition, the GI50 is 10.8 µM (inactive) in the assay with SF-539 and 45.9 µM (inactive) in the assay on KM12.
Regarding `COc1ccc(-c2c3c(nc4[nH]c(=S)[nH]c(=S)c24)CCCC3)cc1OC`, the GI50 in the assay with SNB-75 was 14.3 µM (inactive); in the assay with SNB-19 it was 34.3 µM (inactive); in the assay on UACC-257, 32 µM (inactive); with SW-620, 35.8 µM (inactive); in the assay on UACC-62, 19.6 µM (inactive); in the assay with RPMI-8226 it was 21 µM (inactive). The GI50 was 16.8 µM (inactive) in the assay with LOX IMVI; 19.9 µM (inactive) in the assay with MOLT-4; 36.6 µM (inactive) in the assay with OVCAR-4; 14.7 µM (inactive) with SF-295; 24.7 µM (inactive) with HL-60; 44.4 µM (inactive) in the assay on SK-OV-3. Also, the GI50 in the assay on NCI-H460 is 18.5 µM (inactive); with A549, 21.3 µM (inactive); with OVCAR-3, 52.1 µM (inactive); in the assay with SN12C, 13.5 µM (inactive); in the assay with SF-268, 31 µM (inactive); in the assay with NCI-H23, 29.3 µM (inactive). Also, the GI50 in the assay on SF-539 was 15.3 µM (inactive); with KM12, 30.9 µM (inactive).
For the compound `Oc1cc2cc(O)nc(O)c2c(O)n1`, the GI50 in the assay on SNB-75, with SNB-19, in the assay on UACC-257, with SW-620, with UACC-62 and with RPMI-8226 was > 100 µM (inactive) in each case. The GI50 in the assay with LOX IMVI, in the assay with MOLT-4, in the assay with OVCAR-4, in the assay with SF-295, in the assay with HL-60 and in the assay on SK-OV-3 was > 100 µM (inactive) each time. In addition, the GI50 in the assay with NCI-H460, in the assay on A549, in the assay with OVCAR-3, with SN12C, with SF-268 and in the assay with NCI-H23 was > 100 µM (inactive) in each case. The GI50 with SF-539 and in the assay on KM12 was > 100 µM (inactive) throughout.
Turning to `CN(C)/N=C(/CC(O)(C(F)(F)F)C(F)(F)F)c1ccc([N+](=O)[O-])cc1`, the GI50 in the assay with SNB-75, in the assay on SNB-19, with UACC-257, in the assay on SW-620, in the assay with UACC-62 and with RPMI-8226 was > 100 µM (inactive) each time. Moreover, the GI50 in the assay on LOX IMVI, with MOLT-4, with OVCAR-4, in the assay on SF-295, in the assay with HL-60 and in the assay on SK-OV-3 was > 100 µM (inactive) each time. The GI50 with NCI-H460, in the assay with A549, in the assay with OVCAR-3, in the assay with SN12C, in the assay with SF-268 and in the assay with NCI-H23 was > 100 µM (inactive) throughout. Further, the GI50 in the assay with SF-539 and in the assay with KM12 was > 100 µM (inactive) each time.
As to `C[C@H](N)C(=O)N[C@@H]1[C@H]2C(=C(O)C[C@@H](O)[C@@H]2O)C(=O)O[C@@H]1C`, the GI50 in the assay on SNB-75 was > 100 µM (inactive); with SNB-19, 77.4 µM (inactive); with UACC-257, > 100 µM (inactive); in the assay on SW-620, > 100 µM (inactive); in the assay on UACC-62, > 100 µM (inactive); with RPMI-8226, > 100 µM (inactive). The GI50 in the assay with LOX IMVI is > 100 µM (inactive); in the assay on MOLT-4, > 100 µM (inactive); in the assay on OVCAR-4, > 100 µM (inactive); with SF-295, > 100 µM (inactive); in the assay on HL-60, > 80.4 µM (inactive); with SK-OV-3, > 100 µM (inactive). The GI50 in the assay with NCI-H460, in the assay with A549, in the assay on OVCAR-3, in the assay on SN12C, in the assay with SF-268 and in the assay with NCI-H23 was > 100 µM (inactive) throughout. Moreover, the GI50 with SF-539 and with KM12 was > 100 µM (inactive) each time.
For the compound `C=CC(OC(=O)C(C)C)c1ccc(OC(=O)C(C)C)cc1` (stereo not given), the GI50 was 15 µM (inactive) in the assay with SNB-75; 14.9 µM (inactive) in the assay on SNB-19; 14.7 µM (inactive) in the assay with UACC-257; 4.06 µM (inactive) in the assay on SW-620; 15.8 µM (inactive) with UACC-62; 2.04 µM (inactive) in the assay on RPMI-8226. The GI50 with LOX IMVI is 4.47 µM (inactive); with MOLT-4, 6.93 µM (inactive); with OVCAR-4, 14.8 µM (inactive); in the assay with SF-295 it was 15.6 µM (inactive); in the assay on HL-60, 2.92 µM (inactive); with SK-OV-3, 19.8 µM (inactive). For the same compound, the GI50 with NCI-H460 was 13.9 µM (inactive); with A549, 19.5 µM (inactive); in the assay with OVCAR-3, 16.9 µM (inactive); with SN12C, 14 µM (inactive); with SF-268 it was 26.2 µM (inactive); in the assay on NCI-H23, 20 µM (inactive). The GI50 in the assay on SF-539 was 17 µM (inactive); in the assay with KM12 it was 2.21 µM (inactive).
Consider `COC1=C(C)C(=O)C2=C(C1=O)[C@@H]1[C@@H]3Cc4c(OC(=O)CO)c(C)c(OC)c(O)c4[C@H](CNC(=O)C(C)=O)N3[C@@H](C#N)[C@H](C2)N1C`, for which the GI50 with SNB-75 was < 0.0353 µM (active); in the assay on SNB-19 it was 0.0414 µM (active); in the assay with UACC-257, < 0.0152 µM (active); with SW-620 it was < 0.0164 µM (active); in the assay on UACC-62, < 0.0208 µM (active); in the assay with RPMI-8226, < 0.0142 µM (active). The GI50 was < 0.01 µM (active) with LOX IMVI; 0.0286 µM (active) with MOLT-4; 0.106 µM (active) with OVCAR-4; 0.199 µM (active) in the assay on SF-295; < 0.0135 µM (active) in the assay on HL-60; 0.415 µM (active) in the assay on SK-OV-3. In addition, the GI50 was 0.107 µM (active) in the assay with NCI-H460; 0.366 µM (active) in the assay on A549; < 0.0153 µM (active) in the assay on OVCAR-3; 0.013 µM (active) in the assay on SN12C; 0.0552 µM (active) with SF-268; < 0.011 µM (active) with NCI-H23. Further, the GI50 with SF-539 was 0.0528 µM (active); in the assay with KM12, 0.108 µM (active).
On to `CC[N+]1(C)CCC(O)(c2ccccc2)C(C(=O)c2ccccc2)C1` (stereo not given), for which the GI50 is 12.6 µM (inactive) in the assay on SNB-75; 15.5 µM (inactive) with SNB-19; 17.5 µM (inactive) with UACC-257; 2.12 µM (inactive) in the assay with SW-620; 19 µM (inactive) in the assay with UACC-62; 2 µM (inactive) with RPMI-8226. Also, the GI50 is 15.4 µM (inactive) in the assay with LOX IMVI; 3.04 µM (inactive) with MOLT-4; 11.8 µM (inactive) in the assay on OVCAR-4; 19 µM (inactive) with SF-295; 4.27 µM (inactive) in the assay with HL-60; 17.3 µM (inactive) in the assay with SK-OV-3. Further, the GI50 was 21.7 µM (inactive) in the assay on NCI-H460; 16 µM (inactive) in the assay on A549; 19.3 µM (inactive) with OVCAR-3; 11.6 µM (inactive) in the assay with SN12C; 23.6 µM (inactive) in the assay with SF-268; 20.8 µM (inactive) in the assay on NCI-H23. The GI50 in the assay with SF-539 is 16.7 µM (inactive); with KM12 it was 19.2 µM (inactive).
In the case of `CCOC(=O)C1=C(C)N(c2ccc(Cl)cc2)C2(O)C=CC(Nc3ccc(Cl)cc3)=C3C(=O)N(c4ccccc4)C(=O)C312` (stereo not given), the GI50 is 4.18 µM (inactive) in the assay with SNB-75; 5.68 µM (inactive) in the assay with SNB-19; 13.3 µM (inactive) in the assay on UACC-257; 3.74 µM (inactive) with SW-620; 1.44 µM (inactive) in the assay with UACC-62; 1.32 µM (inactive) in the assay on RPMI-8226. The GI50 in the assay on LOX IMVI was 1.67 µM (inactive); with MOLT-4, 2.12 µM (inactive); in the assay with OVCAR-4 it was 3.15 µM (inactive); in the assay with SF-295 it was 3.18 µM (inactive); in the assay with HL-60 it was 2.97 µM (inactive); in the assay with SK-OV-3, 8.85 µM (inactive). In addition, the GI50 with NCI-H460 was 2.11 µM (inactive); with A549 it was 3.52 µM (inactive); in the assay on OVCAR-3, 0.313 µM (active); in the assay on SN12C it was 2.45 µM (inactive); in the assay on SF-268, 2.4 µM (inactive); in the assay on NCI-H23, 5.42 µM (inactive). Moreover, the GI50 is 3.87 µM (inactive) with SF-539 and 4.34 µM (inactive) with KM12.

The record behind these values is ChEMBL document CHEMBL1201862, “PubChem BioAssay data set” (2004).
